AC50 data for 79 compounds are collected here from PubChem BioAssay AID977630 (Broad Institute, 2014).

Results filed as inconclusive are left out. The source made the active and inactive calls.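 Rule for the calls: active = Normal-ribosome green reporter loss at least double humanized-ribosome red reporter loss, with overall culture growth inhibition under a set limit; inconclusive = no clear call, values can overlap the other calls; inactive = the rest.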

For the test, the system named is E. coli wild-type GFP growth, mixed culture, 24 h. Description: E. coli growth inhibition, wild-type GFP versus H38 humanized RFP strain – H38 mutant RFP vs wild-type GFP, cherry-pick, dose response (AID 977630).
The mark [1] stands for this setting: E. coli mixed culture total OD600 growth, 24 h.

Turning to `O=C(Nc1ccn(Cc2ccc(Cl)cc2)n1)c1ccccc1`, the concentration at half-maximal activity (AC50) under setting [1] is above 100 µM.

For `CCN(CC(=O)Nc1cccc(C#N)c1)CC(=O)Nc1cccc(OC)c1`, the AC50 was > 100 µM (inactive).

`COCC#Cc1ccc2c(c1)O[C@@H](CN(C)S(=O)(=O)c1cccc(F)c1)[C@@H](C)CN([C@H](C)CO)S2(=O)=O` came in with an AC50 under setting [1] above 100 µM. `Cc1nnn(C23CC4CC(CC(CC(=O)Nc5ccc(C)c(C)c5)(C4)C2)C3)n1`: the AC50 was > 100 µM (inactive). Same read-out and setting: under `Cc1ccc(S(=O)(=O)NCc2c(-c3ccccc3)noc2C)cc1` stands > 100 µM (inactive).

Consider `CC(C)(C)N(Cc1ccccc1)C(=O)COC(=O)Cn1cnc2ccccc2c1=O`, for which the AC50 was > 100 µM (inactive).

Regarding `CCCC(=O)Nc1sc2c(c1C(=O)Nc1ccccn1)CCCC2`, the AC50 was > 100 µM (inactive). This compound also gave an AC50 under setting [1] above 100 µM. With `COc1cccc(C(=O)Nc2nnc(S(=O)(=O)N(C)Cc3ccccc3)s2)c1`, the AC50 was > 100 µM (inactive). Further, the AC50 under setting [1] came out at 50.9 µM. As for `Cc1ccc(-c2nc3ccc(NS(=O)(=O)c4ccccc4)cc3[nH]2)o1`, the AC50 was > 100 µM (inactive). For the same compound, the half-maximal activity concentration (AC50) under setting [1] came out at 33.6 µM. Turning to `Cc1cc(CNC(=O)c2cc(-c3ccccc3)nc3ccccc23)nn1C`, the AC50 was > 100 µM (inactive).

Turning to `CCCc1nc2oc3c(NCCCN(C)C)ncnc3c2c2c1CCCC2`, the AC50 is > 100 µM (inactive). Under setting [1], the half-maximal activity concentration (AC50) was above 100 µM. As for `CSc1ccc(CN(C)CC(=O)NC(C)c2ccccc2)cc1` (stereo not drawn), under setting [1], the concentration at half-maximal activity (AC50) is above 100 µM. Regarding `Cn1cc(CN2CCCC(C(=O)c3cccs3)C2)c(-c2cccc(Cl)c2)n1` (stereo not drawn), the AC50 is > 100 µM (inactive). `O=C1c2ccccc2CSc2c(O)cccc21`: the AC50 was > 100 µM (inactive). This compound showed an AC50 under setting [1] of 50.8 µM. For `O=C(O)c1ccc2c(c1)N(Cc1ccccc1)C(=O)c1ccccc1S2`, the AC50 is > 100 µM (inactive). Besides, the AC50 under setting [1] is above 100 µM.

Compound `COc1cc(CC(=O)Nc2nc(C)cs2)cc(OC)c1OC` had a concentration at half-maximal activity (AC50) under setting [1] above 100 µM. Consider `O=C(c1ccc(N2CCCCC2)c([N+](=O)[O-])c1)N1CCN(c2ccccn2)CC1`, for which the AC50 is > 100 µM (inactive). The AC50 under setting [1] was above 100 µM. Regarding `COc1ccc(OC)c(NC(=O)COC(=O)C2CCN(C(=O)c3ccc(Cl)cc3)CC2)c1`, the AC50 is > 100 µM (inactive).

As for `CCn1c(-c2ccccc2Cl)nn(CC(=O)Nc2ccccc2OC)c1=S`, the AC50 was > 100 µM (inactive). The compound further had an AC50 under setting [1] above 100 µM.

As for `CC1Cc2ccccc2N1C(=O)CN1C(=O)NC(C)(CCc2ccccc2)C1=O` (stereo not drawn), under setting [1], the AC50 was above 100 µM. As for `O=C(c1ccc(-n2cccn2)cc1)N1CCc2ccccc2C1`, the AC50 is > 100 µM (inactive).

With `CCOC(=O)C1(CCCc2ccccc2)CCN(C(=O)CCn2cncn2)CC1`, the AC50 is > 100 µM (inactive). Regarding `O=c1[nH]nc(SCc2ccccc2)n1C1CC2C=CC1C2` (stereo not drawn), the AC50 is > 100 µM (inactive). The AC50 under setting [1] turned out to be 49.8 µM. Regarding `C=CCN(CC=C)C(=O)c1ccc2nc(Cc3ccc(OC)c(OC)c3)oc2c1`, the AC50 was > 100 µM (inactive).

Turning to `C=CCN(c1ccccc1)S(=O)(=O)c1ccc(Cl)c(C(=O)OCC(=O)NCCCN2CCCC2=O)c1`, under setting [1], the concentration at half-maximal activity (AC50) was above 100 µM.

In the case of `CC(C)(C)c1ccc(-c2noc(CCC(=O)NCc3ccco3)n2)cc1`, the AC50 is > 100 µM (inactive). Consider `CC(=O)OC(COc1cccc(C)c1)Cn1cnc2ccccc21` (stereo not drawn), for which the AC50 is > 100 µM (inactive). The same compound registered a concentration at half-maximal activity (AC50) under setting [1] above 100 µM. Consider `Cc1c(Cc2ccccc2)sc(NC(=O)Cc2ccccc2)c1C(N)=O`, for which the AC50 is > 100 µM (inactive). For the compound `Cc1cc(C)n(CC(O)COc2ccc3ccccc3c2)n1` (stereo not drawn), the AC50 was > 100 µM (inactive). This compound also came in with an AC50 under setting [1] above 100 µM. Consider `Cc1nn(-c2cccc(Cl)c2)nc1C(=O)O`, for which the AC50 is > 100 µM (inactive). The same measure, in the same setting: as for `O=C(Nc1ccc(C(=O)Nc2ccccc2Cl)cc1)c1cccnc1`, the figure is > 100 µM (inactive). Consider `Cc1[nH]nc2c1C(c1ccc(F)cc1)N(Cc1ccccc1)C2=O` (stereo not drawn), for which the AC50 was > 100 µM (inactive). Under setting [1], the AC50 was above 100 µM. As to `CC(=O)Nc1ccc(OCC(=O)N2CCC(Cc3ccccc3)CC2)cc1`, the AC50 is > 100 µM (inactive).

As for `O=[N+]([O-])c1ccccc1Oc1ccc(Cl)c2cccnc12`, the AC50 is > 100 µM (inactive). In the case of `COc1ccc(NC(=O)CN(c2ccccc2OC)S(=O)(=O)c2cccs2)cc1Cl`, the AC50 is > 100 µM (inactive).

Consider `O=C(Nc1ccc(Br)cc1)c1cccnc1N1CCCCC1`, for which the concentration at half-maximal activity (AC50) under setting [1] is above 100 µM. Turning to `O=C(O)c1ccc(Oc2ccc([N+](=O)[O-])cc2)c([N+](=O)[O-])c1`, the AC50 is > 100 µM (inactive). Compound `COc1ccc(-c2csc(NC(=O)c3ccccc3S(C)(=O)=O)n2)cc1` had a half-maximal activity concentration (AC50) under setting [1] above 100 µM.

Consider `Cc1ccc(Cl)cc1N1CCN(C(=O)c2ccc3nc[nH]c3c2)CC1`, for which the AC50 was > 100 µM (inactive). On the same count and under the same terms, under `Cc1cccc(C(=O)NCC(=O)NCCSc2ccc(Br)cc2)c1` stands > 100 µM (inactive).

As to `CCN(c1ccccc1)S(=O)(=O)c1ccc(Cl)c(NC(=O)CSc2n[nH]c(N)n2)c1`, the AC50 is > 100 µM (inactive). In addition, the AC50 under setting [1] is above 100 µM.

Under setting [1], `Cc1ccccc1Nc1c(-c2cccnc2)nc2ccc(Br)cn12` showed an AC50 above 100 µM. On to `CCOc1cccc(-c2cc(-c3n[nH]c(=S)n3CC)c3ccccc3n2)c1`, for which the AC50 was > 100 µM (inactive). For `CC(=O)c1c(C)nn(CC(O)COc2ccc3c(c2)CCC3)c1C` (stereo not drawn), the AC50 is > 100 µM (inactive). The concentration at half-maximal activity (AC50) under setting [1] was above 100 µM.

`CCCCn1c(NS(=O)(=O)c2ccc(C)cc2)c(C(=O)OCC)c2nc3ccccc3nc21`: the AC50 was > 100 µM (inactive). Further, the half-maximal activity concentration (AC50) under setting [1] is above 100 µM. `CCOC(=O)c1ccc(NC(=O)c2ccc(OC(C)C)c(OC)c2)cc1`: the AC50 under setting [1] is above 100 µM. With `COc1ccc(C2CC(c3cccs3)=Nc3ccccc3S2)cc1` (stereo not drawn), the AC50 under setting [1] is above 100 µM. On to `O=C(Nc1cccc(O)c1)c1cccc(S(=O)(=O)Nc2cccc(O)c2)c1`, for which the AC50 is > 100 µM (inactive). The AC50 under setting [1] is above 100 µM. `CCCCOc1ccc(-c2nnn(CCC(=O)N3CCOCC3)n2)cc1` showed a half-maximal activity concentration (AC50) under setting [1] above 100 µM. Turning to `Cc1cc(C(=O)NCCC2=CCCCC2)ccc1[N+](=O)[O-]`, the AC50 was > 100 µM (inactive).

Under setting [1], `Cc1ccc(S(=O)(=O)N2CCCCC2C(=O)N2CCN(c3ccccc3F)CC2)cc1` (stereo not drawn) gave a half-maximal activity concentration (AC50) above 100 µM. On to `O=C(Nc1cccc(Oc2ccc3c(c2)C(=O)NC3=O)c1)c1cccs1`, for which the AC50 was > 100 µM (inactive).

For the compound `COc1cccc(NC(=O)CSc2nc3c(sc4ccccc43)c(=O)n2CCN(C)C)c1`, the AC50 is > 100 µM (inactive). Take `O=C(Cc1c(Cl)cccc1Cl)Nc1cccc(S(=O)(=O)N2CCOCC2)c1`: the AC50 is > 100 µM (inactive). For the compound `O=C(COc1cc(F)ccc1[N+](=O)[O-])NCCCc1ccccc1`, the AC50 was > 100 µM (inactive). Take `O=S(=O)(c1ccccc1)N1CCN=C1SCc1cccc(Cl)c1`: the AC50 was > 100 µM (inactive). The same compound gave an AC50 under setting [1] above 100 µM.

Turning to `CN(C)S(=O)(=O)c1ccc(Cl)c(C(=O)OCC(=O)NC(=O)c2cccn2C)c1`, the AC50 was > 100 µM (inactive). Take `CN(c1ccccc1)S(=O)(=O)c1cccc(NC(=O)CCNC(=O)c2ccc([N+](=O)[O-])cc2)c1`: the AC50 was > 100 µM (inactive). In addition, the AC50 under setting [1] is above 100 µM. In turn, `CCOC(=O)c1c(C)[nH]c(C)c1S(=O)(=O)NCCN1CCN(c2ccccc2F)CC1` had a half-maximal activity concentration (AC50) under setting [1] above 100 µM. `COC(=O)c1ccc2nc(-c3ccc(OC)c(OC)c3)c(Cc3ccc(C)cc3)n2c1`: the AC50 was > 100 µM (inactive).

As for `O=C(NCCc1csc(-c2ccccc2)n1)c1ccccc1F`, the AC50 was > 100 µM (inactive). With `CCOc1ccc2nc(SCC(=O)Nc3nonc3C)[nH]c2c1`, the AC50 is > 100 µM (inactive). The same compound had an AC50 under setting [1] above 100 µM. Turning to `Cc1ccc2c(N)c(C(=O)c3ccccc3)sc2n1`, under setting [1], the AC50 was above 100 µM. On to `COc1cc2cc(C(=O)Nc3ccc4c(c3)OCCO4)[nH]c2cc1OC`, for which the AC50 was > 100 µM (inactive). This compound also came in with an AC50 under setting [1] above 100 µM. Consider `O=c1c2cc(Br)ccc2[nH]c(=S)n1Cc1ccccc1`, for which the AC50 is > 100 µM (inactive). Still for that read-out and setting: as for `Cc1ccccc1-n1c([C@@H]2C[C@H]2c2ccccc2)n[nH]c1=S`, the figure is > 100 µM (inactive). Still for that read-out and setting: under `FC(F)(F)c1ccc(Cl)c(-n2c(Cc3cccs3)n[nH]c2=S)c1` stands > 100 µM (inactive). On the same count and under the same terms, under `C[C@]12CCC(=O)C[C@H]1CC[C@@H]1[C@@H]2CC[C@]2(C)C(=O)CC[C@@H]12` stands > 100 µM (inactive).

On to `CCc1nc2ccccc2n1CCc1ccccc1`, for which the AC50 is > 100 µM (inactive). As for `CCOc1ccc(OCCn2c(=S)[nH]c3c(N)ncnc32)cc1`, the AC50 was > 100 µM (inactive).

Consider `Cc1cc(C(=O)OCC(=O)Nc2cccc(S(N)(=O)=O)c2)c2ccccc2n1`, for which the AC50 is > 100 µM (inactive). The AC50 under setting [1] was above 100 µM. On the same counts, the results for `O=C(CCCn1c(=S)[nH]c2ccsc2c1=O)Nc1ccc2c(c1)OCCO2` are > 100 µM (inactive) and above 100 µM. For the compound `CCC1(CC)NC(=O)N(CC(=O)N2N=C(c3ccc(Cl)cc3)CC2c2ccco2)C1=O` (stereo not drawn), the AC50 is > 100 µM (inactive). The compound `Cc1ccc(NC(=O)COC(=O)CCNS(=O)(=O)c2c(Cl)cccc2Cl)cc1` returned an AC50 under setting [1] above 100 µM. Turning to `CC(=O)Nc1ccc(S(=O)(=O)Nc2cccc(-c3nc4cc(C)ccc4o3)c2)cc1`, the AC50 is > 100 µM (inactive). The same compound came in with a half-maximal activity concentration (AC50) under setting [1] above 100 µM.

`CCc1cc(C(=O)N2CCCC(C(=O)c3cccc4ccccc34)C2)n(C)n1` (stereo not drawn): the AC50 is > 100 µM (inactive). Same read-out and setting: as for `O=C(NCc1ccco1)c1ccc(COc2cccc3ccccc23)cc1`, the figure is > 100 µM (inactive). With `CN1OC[C@@H]2CN(C(=O)c3ccco3)[C@H](c3ccc(-c4ccc(C#N)cc4)cc3)C[C@@H]21`, under setting [1], the AC50 is above 100 µM. Consider `COCC(C)NC(=O)c1nn(Cc2ccccc2)c(=O)c2ccccc12` (stereo not drawn), for which the AC50 was > 100 µM (inactive). Under setting [1], this compound had a concentration at half-maximal activity (AC50) above 100 µM.

One may read the AC50 as the concentration giving half of the maximal activity seen.
